Data: patent publication US9757375B2, “Compounds that inhibit human DNA ligases and methods of treating cancer” (University of Maryland, Baltimore, priority 2007, dated 2017)
Like-named read-outs stand apart in the source and are kept apart here.

Assays:
hLigIV/XRCC4 = hLigIV/XRCC4 (Homo sapiens, UniProt P49917); assay: Radioactive gel-based DNA ligation assay; format: biochemical; parameters: concentration or dose not given beside the values
hLigIIIβ = target: T1, hLigIIIβ (Homo sapiens, UniProt P49916); assay: Radioactive gel-based DNA ligation assay; format: biochemical; settings: grades ±, Ø (key not given)
T1 sequence (P49916 1-862 isoform P49916-4): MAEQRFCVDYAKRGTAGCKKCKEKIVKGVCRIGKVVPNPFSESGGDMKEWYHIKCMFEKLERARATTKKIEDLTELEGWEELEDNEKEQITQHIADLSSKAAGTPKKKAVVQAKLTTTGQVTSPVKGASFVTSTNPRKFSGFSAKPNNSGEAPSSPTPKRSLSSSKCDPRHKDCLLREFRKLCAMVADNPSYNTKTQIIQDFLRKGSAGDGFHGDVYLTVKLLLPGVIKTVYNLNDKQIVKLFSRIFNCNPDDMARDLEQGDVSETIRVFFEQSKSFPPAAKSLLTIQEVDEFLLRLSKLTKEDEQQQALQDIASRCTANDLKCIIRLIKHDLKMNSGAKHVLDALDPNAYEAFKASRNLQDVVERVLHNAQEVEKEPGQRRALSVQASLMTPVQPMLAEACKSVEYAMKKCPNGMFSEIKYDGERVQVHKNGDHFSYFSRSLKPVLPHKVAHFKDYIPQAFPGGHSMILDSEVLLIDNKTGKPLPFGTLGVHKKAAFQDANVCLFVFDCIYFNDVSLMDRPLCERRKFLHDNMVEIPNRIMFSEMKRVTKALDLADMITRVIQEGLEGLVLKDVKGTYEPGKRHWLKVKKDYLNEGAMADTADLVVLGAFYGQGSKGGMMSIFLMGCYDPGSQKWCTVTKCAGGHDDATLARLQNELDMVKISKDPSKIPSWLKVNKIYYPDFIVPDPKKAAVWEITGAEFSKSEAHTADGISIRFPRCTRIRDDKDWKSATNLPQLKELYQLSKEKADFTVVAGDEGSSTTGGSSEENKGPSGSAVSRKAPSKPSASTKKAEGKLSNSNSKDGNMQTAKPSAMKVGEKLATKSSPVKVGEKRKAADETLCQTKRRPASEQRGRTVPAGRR

HCT116 and MCF10A cells [1] = assay: Screen for potentiation of DNA damaging agents, cell line not stated with the result; format: cell-based, human; settings: for cell survival: sensitivity to DNA damaging agent (IR, MMS): cell line not stated; for synergy with PARP inhibitors / enhancement of the cytostatic effect of MMS / radiosensitizer activity: 50 μM; for synergy with PARP inhibitors: 3 AB 2 mM; for enhancement of the cytostatic effect of MMS: MMS 100 μM; for radiosensitizer activity: 2 gray of ionizing radiation
From the text: The 192 human DNA ligase inhibitors were screened in parallel for effects on proliferation and the ability to potentiate the effects of several DNA damaging agents using two cell human lines, a colon cancer line HCT116 and a normal breast epithelial cell line MCF10A using a Biomek FX Laboratory Automation Workstation as described (23). The DNA damaging agents used, methyl methanesulfonate (MMS), camptothecin, cis-platinum, 3 aminobenzamide and ionizing radiation, are representatives of classes of agents used to treat cancer. Briefly, HCT116 and MCF10A cells were plated in 96 well plates such that the cultures were about 80% confluent after 5 days incubation. Compounds were added to the cultures at either 15 μM or 50 μM 1 day after plating. After incubation for 3 days, cell lysed in a solution containing 1.2% Igepal CA-630 and SYBR green that stains DNA (1:1000, Molecular Probes, Eugene, Oreg.). Subsequently, fluorescence was measured per well. The studies with DNA damaging agents were performed as follows. […] For ionizing radiation, cells were pre-incubated with the compounds at 50 μM for 1 hour prior to exposure to 2 gray of ionizing radiation. Cultures were incubated for 3 days and then treated as above.

DNA = DNA binding by displacement of ethidium bromide from DNA; settings: EtBr replacement assay; 192 at 0, 50, 100 μM
Procedure: Candidate ligase inhibitors identified by CADD were assayed for their ability to inhibit hLigI and T4 DNA ligase using a high-throughput, fluorescence energy transfer-based DNA joining assay (22). Duplicate reactions (30 μL) containing 10 pmol of nicked DNA substrate and either 0.25 pmol of hLigI or 10 units of T4 DNA ligase were incubated in the presence or absence of 100 μmol/L of the putative inhibitor. DNA binding by the candidate DNA ligase inhibitors was measured by displacement of ethidium bromide from DNA as previously described (30).

[2] = system: Human DNA ligases I, III and IV and T4 DNA ligase; assay: Step 1 of the ligation reaction: ligase-AMP complex formation with [α32P] ATP; format: biochemical; settings: for inhibition of the first step of the ligation reaction (ligase-AMP formation): 100 μM, FIG. 3A
Procedure: Human DNA ligases I, III and IV and T4 DNA ligase were incubated with [α^32P] ATP in the absence or presence of compounds 67, 82 and 189 (100 μM). After separation by SDS-PAGE, the labeled ligase-AMP complex was detected by phosphorimaging.

HCT116 cells = assay: MTT cell growth assay; format: cell-based, human; settings: for IC50: Homo sapiens
Procedure, shortened: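 HCT116 cells (1200 per well) adhered overnight, then were exposed to serially diluted compounds for 5 days. MTT was added for 4 h, formazan dissolved in isopropanol and absorbance read at 560 nm as the growth measure.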

MCF7 cells = assay: Colony forming (survival) assay; format: cell-based, human
Procedure: For survival assays, cells were plated in 6 well plates and grown either in the absence or presence of ligase inhibitors. Where indicated, either MMS (0-50 μM) was added to the medium or the cells were irradiated in a Cs-137 irradiator (0-2.5 Gy). After two weeks, colonies were stained with crystal violet (Sigma) and then counted.
To confirm that the DNA ligase inhibitors directly kill cells and potentiate cell killing by DNA damaging agents, we performed colony forming assays.
Different concentrations of Compound 184 were added to asynchronous subconfluent populations of HCT116, MCF7 and MCF10A cells. Colonies were counted after two weeks. (FIG. 6A).
Different concentrations of Compound 67 were added to asynchronous subconfluent populations of HCT116, MCF7 and MCF10A cells. After 1 hour, cultures were irradiated with 2 gray of ionizing radiation. Different concentrations of Compound 67 were added to asynchronous subconfluent populations of HCT116 and MCF10A cells in the absence or presence of MMS (50 μM). Colonies were counted after two weeks. (FIG. 6D).

HCT116 and MCF10A cells [3] = assay: Cell proliferation screen, result stated for one or both cell lines; format: cell-based; settings: Homo sapiens, read-out: IC50 of inhibition of proliferation
[4] = HCT-116, cell growth, compound alone, read-out: IC50 (μM) HCT116
[5] = HCT-116, sections 'high concentrations (~50 μM)' and 'active in vitro that decreased cell growth', same figures given in μM elsewhere in Table 6, read-out: IC50 HCT116 (head without unit)

Chain of hLigIV/XRCC4 (P49917 whole entry): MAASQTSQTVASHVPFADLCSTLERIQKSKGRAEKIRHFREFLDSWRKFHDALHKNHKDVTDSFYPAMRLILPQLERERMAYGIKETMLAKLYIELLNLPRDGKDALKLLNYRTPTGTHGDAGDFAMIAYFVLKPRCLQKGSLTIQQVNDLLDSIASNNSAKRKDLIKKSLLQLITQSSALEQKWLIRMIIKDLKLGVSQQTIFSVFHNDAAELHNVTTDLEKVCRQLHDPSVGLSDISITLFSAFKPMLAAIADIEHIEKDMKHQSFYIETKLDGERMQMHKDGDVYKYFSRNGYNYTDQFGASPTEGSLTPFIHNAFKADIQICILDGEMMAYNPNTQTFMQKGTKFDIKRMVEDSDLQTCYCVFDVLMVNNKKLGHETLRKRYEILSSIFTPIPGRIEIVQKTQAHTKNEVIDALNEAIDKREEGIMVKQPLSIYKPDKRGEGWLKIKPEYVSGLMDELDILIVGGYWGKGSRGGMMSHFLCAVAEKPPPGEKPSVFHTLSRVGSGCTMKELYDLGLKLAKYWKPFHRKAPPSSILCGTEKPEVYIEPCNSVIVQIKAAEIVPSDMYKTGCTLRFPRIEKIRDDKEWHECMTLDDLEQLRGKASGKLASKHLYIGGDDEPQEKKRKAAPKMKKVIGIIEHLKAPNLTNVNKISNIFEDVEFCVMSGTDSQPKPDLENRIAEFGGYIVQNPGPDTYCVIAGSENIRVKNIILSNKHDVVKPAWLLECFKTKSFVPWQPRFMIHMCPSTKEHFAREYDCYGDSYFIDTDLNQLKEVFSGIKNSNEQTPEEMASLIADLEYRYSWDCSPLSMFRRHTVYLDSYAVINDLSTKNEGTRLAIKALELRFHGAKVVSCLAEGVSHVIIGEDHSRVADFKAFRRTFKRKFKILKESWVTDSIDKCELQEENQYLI
Chain of hLigIV/XRCC4 (Q13426 whole entry partner): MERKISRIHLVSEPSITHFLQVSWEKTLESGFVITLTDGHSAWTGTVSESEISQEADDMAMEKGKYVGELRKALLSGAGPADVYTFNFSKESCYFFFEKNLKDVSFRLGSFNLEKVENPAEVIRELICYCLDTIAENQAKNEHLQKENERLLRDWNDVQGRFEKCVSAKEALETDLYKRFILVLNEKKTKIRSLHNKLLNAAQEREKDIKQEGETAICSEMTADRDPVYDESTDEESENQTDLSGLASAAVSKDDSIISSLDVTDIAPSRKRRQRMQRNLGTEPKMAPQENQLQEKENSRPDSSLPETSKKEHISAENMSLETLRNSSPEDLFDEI

SMILES: Cc1oc(C(=O)O)cc1CSCc1cc(C(=O)O)c(C)o1 [Compound 197]
- % activity Inhibition hLigIV gel (hLigIV/XRCC4): 100%

SMILES: COc1ccc(-c2cnc3c(O)nc(O)nc3n2)cc1 [Compound 190]
- % activity Inhibition hLigIII gel (hLigIIIβ): Ø

SMILES: Nc1nc(S)nc(O)c1/N=C/c1ccccc1 [Compound 189]
- cell survival: sensitivity to DNA damaging agent (IR, MMS) (HCT116 and MCF10A cells [1]): IR sensitive
- DNA binding of compound (effect on DNA binding by ethidium bromide) (DNA): had no effect on DNA binding by ethidium bromide
- inhibition of the first step of the ligation reaction (ligase-AMP formation) [2]: did not inhibit
- % activity Inhibition hLigIV gel (hLigIV/XRCC4): 80%

SMILES: CS(=O)(=O)NNC(=O)C(=O)NNc1ccccc1 [Compound 184]
- inhibition of cell proliferation of HCT116 at 50 μM (MTT) (HCT116 cells; 50 μM, numbers printed under HCT116 in r92-r106: 16, 64, 124, 130, 165, 184 (30%), 195, 197, 198, 212): 184 (30%)
- cell killing (colony formation) (MCF7 cells; MCF7, compound alone, compared with MCF10A, FIG. 6A): more effective at killing
- % activity Inhibition hLigIII gel (hLigIIIβ): Ø

SMILES: Cc1c(Br)cc(NCC(=O)N/N=C\c2cc([N+](=O)[O-])ccc2O)cc1Br [Compound 67]
- synergy with PARP inhibitors (HCT116 and MCF10A cells [1]): act synergistically with PARP inhibitors
- enhancement of the cytostatic effect of MMS (HCT116 and MCF10A cells [1]): enhance the cytostatic effect of MMS
- cell survival: sensitivity to DNA damaging agent (IR, MMS) (HCT116 and MCF10A cells [1]): IR, MMS sensitive
- IC50 (HCT116 cells; [4]): 8 µM
- IC50 (HCT116 cells; [5]): 8 µM
- DNA binding of compound (effect on DNA binding by ethidium bromide) (DNA): had no effect on DNA binding by ethidium bromide
- IC50 (HCT116 and MCF10A cells [3]): < 20 µM
- inhibition of the first step of the ligation reaction (ligase-AMP formation) [2]: did not inhibit
- potentiation of killing by ionizing radiation (MCF7 cells; MCF7, 2 gray, FIG. 6D): potentiates
- potentiation of killing by MMS (MCF7 cells; MCF7, MMS, FIG. 6D): potentiates

SMILES: O=c1[nH]ncc(N/N=C\c2ccc(O)c([N+](=O)[O-])c2)c1Cl [Compound 82]
- DNA binding of compound (effect on DNA binding by ethidium bromide) (DNA): had no effect on DNA binding by ethidium bromide
- inhibition of the first step of the ligation reaction (ligase-AMP formation) [2]: did not inhibit

SMILES: O=C(c1ccc(O)cc1)c1ccccc1O [Compound 200]
- IC50 (HCT116 cells; [4]): ~10 µM
- IC50 (HCT116 cells; [5]): 10 to 150 µM

SMILES: O=C1Nc2ccccc2Oc2cc([N+](=O)[O-])cc([N+](=O)[O-])c21 [Compound 180]
- IC50 (HCT116 cells; HCT-116, read-out: IC50 HCT116 (head without unit)): 3 µM
- IC50 (HCT116 cells; [4]): 12 µM
- IC50 (HCT116 and MCF10A cells [3]): < 20 µM

SMILES: O=C(Cn1cnc([N+](=O)[O-])n1)N/N=C/c1ccc(O)cc1O [Compound 151]
- radiosensitizer activity (HCT116 and MCF10A cells [1]): act as radiosensitizers
- enhancement of the cytostatic effect of MMS (HCT116 and MCF10A cells [1]): enhance the cytostatic effect of MMS
- cell survival: sensitivity to DNA damaging agent (IR, MMS) (HCT116 and MCF10A cells [1]): MMS sensitive
- IC50 (HCT116 cells; [4]): 22 µM
- IC50 (HCT116 cells; [5]): 22 µM
- IC50 (HCT116 and MCF10A cells [3]): < 20 µM
- % activity Inhibition hLigIII gel (hLigIIIβ): Ø

SMILES: C/C(O)=C1/C(=O)N(c2nc3ccccc3s2)N=C1c1ccccc1 [Compound 43]
- % activity Inhibition hLigIII gel (hLigIIIβ): Ø

SMILES: O=C(O)CSc1cc(Cl)c2nonc2c1[N+](=O)[O-] [Compound 64]
- radiosensitizer activity (HCT116 and MCF10A cells [1]): act as radiosensitizers
- synergy with PARP inhibitors (HCT116 and MCF10A cells [1]): act synergistically with PARP inhibitors
- cell survival: sensitivity to DNA damaging agent (IR, MMS) (HCT116 and MCF10A cells [1]): IR sensitive
- Mechanism: ligation step inhibited (1st step) ([2]; Table 5A): 1st step
- % activity Inhibition hLigIV gel (hLigIV/XRCC4): 66%
